Data taken from patent US20120039844A1, “COMPOSITION AND USE OF N-ALPHA-METHYLHISTAMINE DIHYDROCHLORIDE FOR THE REDUCTION OF OXYGEN RADICAL FORMATION” (priority 2009, published 2012).
pEC50: −log10 of the molar value.

Assays:
B16 melanoma cells = assay: i.v. injected B16 melanoma in mice (lung tumor weight, pulmonary metastatic foci); assay type: in vivo; settings: for tumor weight (wet lung weight at day 14) vs control mice: 24 hours before tumor cell inoculation, FIG. 4
Method: The anti-tumor properties of N-α-MH on i.v. injected B16 melanoma cells in mice were evaluated. One of N-α-MH, HDC, and a positive control were administered to the mice 24 hours before tumor cell inoculation as described by Hellstrand et al., J. Immunol., vol. 145, pp 4365-4370. Macroscopically visible pulmonary metastatic foci were counted fourteen days after the tumor cell inoculation. The tumor weight is the wet weight at day 14 of lungs from mice injected with tumor cells on day 0 as described by Hellstrand et al., J. Immunol., vol. 145, pp 4365-4370.

[1] = in the blood; cited from earlier work
[2] = system: human mononuclear phagocytes; assay: fMLF-induced oxygen radical formation (respiratory burst) in mononuclear phagocytes; assay type: cell-based; settings: FIG. 1
NK cells [3] = assay: Protection of NK cells from apoptosis inflicted by mononuclear phagocytes; assay type: cell-based, human; settings: FIG. 2
Method: The ability of N-α-MH to protect NK cells from apoptosis inflicted by mononuclear phagocytes was evaluated. Cells were prepared as described by Hellstrand et al., J. Immunol., vol. 153, pp 4940-7, and mixtures of mononuclear phagocytes and NK cells were incubated overnight with HDC or N-α-MH at indicated final concentrations in 96-well microplates. Thereafter, cells were recovered and NK cells were analyzed for apoptosis (forward and side scatter) as described in Betten et al., J. Clin. Invest. Vol. 108, pp 1221-8 (hereby incorporated by reference in its entirety). FIG. 2 plots the results of six similar experiments.

NK cells [4] = assay: CD69 expression on NK cells exposed to IL-2; assay type: cell-based; settings: with human recombinant IL-2 50 U/ml, overnight; FIG. 3
Method: Three separate experiments were performed as described above with the addition of human recombinant IL-2 (50 U/ml) during the overnight incubation. The experiments were initiated with the aim at clarifying whether N-α-MH synergizes with IL-2 to activate NK cells in a fashion similar to HDC. The activation of NK cells by IL-2 was measured as the capacity of these cells to express the cell surface activation antigen CD69 (See, generally Hellstrand et al. JI 1994).

H2 receptor = H2 receptor (Homo sapiens, UniProt P25021); settings: Saitoh et al., Gut 2002; cited from earlier work
H1 receptors = H1 receptors (Homo sapiens, UniProt P35367); settings: cited from earlier work
Chain of H1 receptors (P35367 whole entry): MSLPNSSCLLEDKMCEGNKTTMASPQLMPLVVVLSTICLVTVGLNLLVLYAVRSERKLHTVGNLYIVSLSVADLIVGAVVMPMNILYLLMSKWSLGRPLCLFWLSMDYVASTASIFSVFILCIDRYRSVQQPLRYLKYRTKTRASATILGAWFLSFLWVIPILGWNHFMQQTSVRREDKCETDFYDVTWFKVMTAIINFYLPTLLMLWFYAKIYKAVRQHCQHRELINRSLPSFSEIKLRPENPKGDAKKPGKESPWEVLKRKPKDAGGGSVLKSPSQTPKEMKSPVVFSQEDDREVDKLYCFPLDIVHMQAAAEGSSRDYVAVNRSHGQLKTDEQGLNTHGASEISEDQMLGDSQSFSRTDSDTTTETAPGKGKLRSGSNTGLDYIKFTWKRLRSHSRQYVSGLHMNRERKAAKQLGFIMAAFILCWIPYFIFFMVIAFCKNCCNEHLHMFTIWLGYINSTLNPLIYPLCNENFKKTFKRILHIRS

Chain of H2 receptor (P25021 whole entry): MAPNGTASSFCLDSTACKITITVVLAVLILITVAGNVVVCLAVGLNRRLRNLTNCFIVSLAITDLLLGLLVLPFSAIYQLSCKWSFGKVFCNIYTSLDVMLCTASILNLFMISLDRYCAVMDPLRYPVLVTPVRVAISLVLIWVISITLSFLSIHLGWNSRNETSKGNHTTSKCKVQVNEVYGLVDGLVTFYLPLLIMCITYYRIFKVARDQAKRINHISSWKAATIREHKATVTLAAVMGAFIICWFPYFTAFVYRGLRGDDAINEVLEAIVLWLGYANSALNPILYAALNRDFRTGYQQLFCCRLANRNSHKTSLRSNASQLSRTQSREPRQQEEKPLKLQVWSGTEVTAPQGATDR

Structure (SMILES) | tumor weight (wet lung weight at day 14) vs control mice (B16 melanoma cells; 50 mg/kg) | half life [1] | inhibition of oxygen radical production ([2]; 5 min preincubation, then fMLF) | maximal response in terms of oxygen radical inhibition, compared with HDC ([2]; in vitro) | pEC50 (NK cells [3]; Homo sapiens, overnight incubation with mononuclear phagocytes, six experiments, read-out: ED50 for protection of NK cells) | protection of NK cells from apoptosis, compared with HDC (NK cells [3]; in vitro) | expression of CD69 on NK cells (NK cells [4]) | potency relative to HDC in reducing tumor weight in vivo (B16 melanoma cells; 5 mg/kg N-α-MH equal to 50 mg/kg histamine) | tumor weight (wet lung weight at day 14) vs control mice (B16 melanoma cells; 5 mg/kg) | extent of tumor reduction (lung metastases) compared with HDC at 50 mg/kg (B16 melanoma cells; 5 mg/kg, 14 days after inoculation, FIG. 5) | number of melanoma lung metastases vs control mice (B16 melanoma cells; 50 mg/kg, 14 days after inoculation, FIG. 5) | potency relative to HDC in reducing melanoma metastasis in vivo (B16 melanoma cells; FIG. 5) | potency relative to HDC in reducing tumor formation in vivo (B16 melanoma cells; mouse, in vivo) | potency in stimulating cAMP production via the H2 receptor, compared with histamine (H2 receptor) | activity at H1 receptors (H1 receptors)
Cl.Cl.NCCc1c[nH]cn1 [HDC, histamine dihydrochloride] | significantly reduced tumor weight | five |  |  |  |  |  |  |  |  |  |  |  |  | 
CNCCc1c[nH]cn1 [N-α-MH, N-alpha-methyl-histamine] | significantly reduced tumor weight |  | potent inhibitor of oxygen radical production | at least comparable to HDC | 5.66 | equally potent and effective at protecting NK cells from apoptosis as HDC | synergized with IL-2 to induce expression of CD69 on NK cells | about 10 times | significantly reduced tumor weight | about equal | significantly less lung metastases than control mice | approximately 10 times | approximately 10 times | significantly more potent than histamine | little or no activity at H1 receptors
